In paper PMC8185074, “Anchor extension: a structure-guided approach to design cyclic peptides targeting enzyme active sites” (Nature Communications, 2021):
Peptide text beside a SMILES is read from it.

Key:
Type in all cases: biochemical
HDAC2 [1] = target: T1, HDAC2 (Homo sapiens, UniProt Q92769); assay: Initial HDAC2 IC50 estimate (BPS Biosciences HDAC fluorogenic assay kit); conditions: HDAC2 activity (initial activity), Supplementary Dataset 2
T1 construct: purchased Reaction Biology Corporation (assay run by the CRO)
T1 sequence (Q92769 whole entry): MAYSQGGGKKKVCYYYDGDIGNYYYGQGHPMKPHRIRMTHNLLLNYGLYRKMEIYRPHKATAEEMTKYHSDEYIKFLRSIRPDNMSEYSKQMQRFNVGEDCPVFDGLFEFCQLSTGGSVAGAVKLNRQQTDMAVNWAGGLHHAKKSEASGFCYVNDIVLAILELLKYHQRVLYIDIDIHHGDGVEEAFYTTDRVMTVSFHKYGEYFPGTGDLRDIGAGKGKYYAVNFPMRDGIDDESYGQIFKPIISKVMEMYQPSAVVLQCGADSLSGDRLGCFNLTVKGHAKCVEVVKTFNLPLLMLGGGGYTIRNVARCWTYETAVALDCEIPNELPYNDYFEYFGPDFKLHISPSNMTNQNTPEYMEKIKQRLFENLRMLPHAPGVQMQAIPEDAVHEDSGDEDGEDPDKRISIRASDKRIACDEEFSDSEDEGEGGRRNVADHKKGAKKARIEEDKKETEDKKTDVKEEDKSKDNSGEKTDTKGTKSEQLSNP
Experimental: Initial IC50 values were estimated using HDAC fluorogenic assay kits from BPS Biosciences (HDAC2, HDAC4, and HDAC6) following the protocol described in the kit. All the measures were performed in duplicates or triplicates. These measurements were done either on full range of concentrations (1:10 dilution from 1 µM to 100 pM) or on two concentrations only (20 nM and 200 nM) as an estimate of the range. […] Source Data are provided as a Source Data file.

HDAC2 [2] = target: T1, HDAC2; assay: HDAC2 inhibition, full IC50 measurement (Reaction Biology; fluorogenic p53 peptide RHKK(Ac)AMC); conditions: t1
Experimental: (§1) The assay was performed using 50 μM fluorogenic peptide from p53 residues 379-382 [RHKK(Ac)AMC] in a base reaction buffer of 50 mM Tris-HCl at pH 8.0, 137 mM NaCl, 2.7 mM KCl, 1 mM MgCl2, and freshly added 1 mg/ml BSA and 1% DMSO. Peptides were first dissolved in DMSO and then added to the reaction mixture with the enzyme using acoustic technique, enough to reach the desired concentration for that assay point. Peptide concentrations were calculated based on mass of lyophilized peptide and its molecular weight. The substrate was then added and incubated for 1 hour at 30 °C in a sealed container. After the incubation, developer was added to stop the reaction and develop color. Kinetic measurements were then performed for 20 min with Envision with 5 min intervals (Ex/Em = 360/460 nm). The endpoint after plateau was taken for IC50 measurement.
(§2) In cases where duplicate measures are used, average data is reported in the main text or Supplementary Tables.

HDAC6 = target: T2, HDAC6 (Homo sapiens, UniProt Q9UBN7); assay: HDAC6 inhibition, full IC50 measurement (Reaction Biology; fluorogenic p53 peptide RHKK(Ac)AMC); conditions: t1
T2 construct: purchased Reaction Biology Corporation (assay run by the CRO)
T2 sequence (Q9UBN7 1-1215): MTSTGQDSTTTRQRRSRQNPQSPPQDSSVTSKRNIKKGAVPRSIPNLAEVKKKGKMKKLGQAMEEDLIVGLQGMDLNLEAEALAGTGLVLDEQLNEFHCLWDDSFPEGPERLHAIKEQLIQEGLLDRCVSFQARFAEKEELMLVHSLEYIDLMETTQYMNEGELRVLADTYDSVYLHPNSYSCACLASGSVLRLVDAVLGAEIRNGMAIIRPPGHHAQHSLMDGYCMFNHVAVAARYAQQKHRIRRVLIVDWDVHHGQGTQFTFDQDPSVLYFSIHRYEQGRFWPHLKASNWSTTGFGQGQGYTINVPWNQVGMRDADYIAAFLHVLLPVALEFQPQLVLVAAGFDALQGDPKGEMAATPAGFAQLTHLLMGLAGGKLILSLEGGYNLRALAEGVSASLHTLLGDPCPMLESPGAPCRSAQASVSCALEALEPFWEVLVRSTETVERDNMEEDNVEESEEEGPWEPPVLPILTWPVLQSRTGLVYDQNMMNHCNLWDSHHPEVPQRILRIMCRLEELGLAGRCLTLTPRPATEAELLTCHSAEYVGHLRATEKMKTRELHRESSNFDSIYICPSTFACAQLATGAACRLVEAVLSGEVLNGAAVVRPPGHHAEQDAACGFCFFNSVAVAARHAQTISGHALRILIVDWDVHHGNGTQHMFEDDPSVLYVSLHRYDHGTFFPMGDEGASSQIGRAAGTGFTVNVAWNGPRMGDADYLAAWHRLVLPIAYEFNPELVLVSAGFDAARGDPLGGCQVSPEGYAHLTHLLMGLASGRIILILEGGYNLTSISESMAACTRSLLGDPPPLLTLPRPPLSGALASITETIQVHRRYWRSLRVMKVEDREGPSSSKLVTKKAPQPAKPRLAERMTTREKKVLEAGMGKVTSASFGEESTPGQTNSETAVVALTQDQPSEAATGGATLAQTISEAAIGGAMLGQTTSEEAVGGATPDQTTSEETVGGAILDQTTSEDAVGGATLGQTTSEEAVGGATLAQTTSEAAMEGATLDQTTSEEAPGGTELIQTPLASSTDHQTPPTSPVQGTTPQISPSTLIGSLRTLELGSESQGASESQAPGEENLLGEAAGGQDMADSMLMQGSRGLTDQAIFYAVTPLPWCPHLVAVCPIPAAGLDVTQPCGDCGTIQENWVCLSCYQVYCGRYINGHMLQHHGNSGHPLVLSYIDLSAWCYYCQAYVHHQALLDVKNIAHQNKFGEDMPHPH
Experimental: as §1, §2

HDAC8 = target: T3, HDAC8 (Homo sapiens, UniProt Q9BY41); assay: HDAC8 inhibition, full IC50 measurement (Reaction Biology; fluorogenic p53 peptide RHKK(Ac)AMC); conditions: t1/t2 replicates
T3 construct: purchased Reaction Biology Corporation (assay run by the CRO)
T3 sequence (Q9BY41 1-377): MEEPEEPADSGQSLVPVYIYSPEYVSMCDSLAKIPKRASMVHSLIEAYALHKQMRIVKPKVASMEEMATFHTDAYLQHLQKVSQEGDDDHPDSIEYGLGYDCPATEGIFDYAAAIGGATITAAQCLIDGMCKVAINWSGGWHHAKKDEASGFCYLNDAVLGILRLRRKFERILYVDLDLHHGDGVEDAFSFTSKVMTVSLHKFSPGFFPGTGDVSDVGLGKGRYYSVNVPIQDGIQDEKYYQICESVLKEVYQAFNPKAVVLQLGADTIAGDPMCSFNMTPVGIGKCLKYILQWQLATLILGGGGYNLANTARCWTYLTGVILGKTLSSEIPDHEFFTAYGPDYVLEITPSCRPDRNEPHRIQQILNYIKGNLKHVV
Experimental: as §1, §2

HDAC3 = target: T4, HDAC3 (Homo sapiens, UniProt O15379); assay: HDAC3 inhibition, full IC50 measurement (Reaction Biology; fluorogenic p53 peptide RHKK(Ac)AMC); conditions: t1
T4 construct: purchased Reaction Biology Corporation (assay run by the CRO)
T4 sequence (O15379 whole entry): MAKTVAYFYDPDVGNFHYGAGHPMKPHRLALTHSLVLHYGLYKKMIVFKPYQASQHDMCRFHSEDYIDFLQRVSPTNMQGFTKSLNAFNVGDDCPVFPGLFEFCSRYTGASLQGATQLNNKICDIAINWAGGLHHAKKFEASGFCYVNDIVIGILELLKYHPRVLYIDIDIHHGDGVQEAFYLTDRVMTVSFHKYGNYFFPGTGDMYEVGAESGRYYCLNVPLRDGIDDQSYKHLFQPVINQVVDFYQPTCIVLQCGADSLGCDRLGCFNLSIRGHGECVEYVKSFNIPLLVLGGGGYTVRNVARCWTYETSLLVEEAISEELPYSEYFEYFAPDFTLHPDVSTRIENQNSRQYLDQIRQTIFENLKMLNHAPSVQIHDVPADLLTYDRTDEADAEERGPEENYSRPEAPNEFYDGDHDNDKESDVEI
T4 sequence (Q9Y618 395-489 partner limits assumed): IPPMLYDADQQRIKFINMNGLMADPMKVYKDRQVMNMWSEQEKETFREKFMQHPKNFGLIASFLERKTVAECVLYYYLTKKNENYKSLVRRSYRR
Experimental: as §1, §2

HDAC1 = target: T5, HDAC1 (Homo sapiens, UniProt Q13547); assay: HDAC1 inhibition, full IC50 measurement (Reaction Biology; fluorogenic p53 peptide RHKK(Ac)AMC); conditions: t1/t2 replicates
T5 construct: purchased Reaction Biology Corporation (assay run by the CRO)
T5 sequence (Q13547 whole entry): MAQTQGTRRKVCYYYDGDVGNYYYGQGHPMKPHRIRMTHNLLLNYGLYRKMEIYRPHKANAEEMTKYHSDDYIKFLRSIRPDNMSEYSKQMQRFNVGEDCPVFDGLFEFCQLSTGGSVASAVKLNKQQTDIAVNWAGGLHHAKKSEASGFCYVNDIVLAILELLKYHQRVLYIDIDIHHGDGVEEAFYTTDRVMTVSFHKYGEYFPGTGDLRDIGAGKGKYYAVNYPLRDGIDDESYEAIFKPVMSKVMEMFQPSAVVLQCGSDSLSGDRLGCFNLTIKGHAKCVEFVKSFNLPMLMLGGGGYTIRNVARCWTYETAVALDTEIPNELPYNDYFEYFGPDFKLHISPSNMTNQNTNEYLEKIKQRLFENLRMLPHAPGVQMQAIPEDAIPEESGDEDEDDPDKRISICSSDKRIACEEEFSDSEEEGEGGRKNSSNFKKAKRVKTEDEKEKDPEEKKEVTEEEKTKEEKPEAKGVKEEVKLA
Experimental: as §1, §2

## C[C@H]1NC(=O)[C@H](CCCNC(=N)N)NC(=O)[C@@H](CC(N)=O)NC(=O)[C@@H](CC(N)=O)NC(=O)[C@H](CCC(=O)O)NC(=O)[C@@H](CC(=O)O)NC(=O)[C@@H](CC(N)=O)NC(=O)[C@H](CCCCCS)NC1=O [des1.3.0, SHA-dAsn-dAsp-Glu-dAsn-dAsn-Arg-dAla] (HELM PEPTIDE1{E.[dN].[dN].R.[dA].[O=C([C@H](CCCCCS)N[*:1])[*:2]].[dN].[dD]}$PEPTIDE1,PEPTIDE1,1:R1-8:R2$$$V2.0)
HDAC2 [1]
  IC50: 1000 nM

## CC(C)C[C@@H]1NC(=O)[C@@H](CCC(=O)O)NC(=O)[C@@H](CC(N)=O)NC(=O)[C@@H](Cc2c[nH]cn2)NC(=O)[C@H](CCCCCS)NC(=O)[C@H](Cc2ccc3ccccc3c2)NC(=O)[C@H](CCCNC(=N)N)NC(=O)[C@@H]2CCCN2C(=O)[C@@H](C)NC1=O [des3.8.0, SHA-dHis-dAsn-dGlu-Leu-dAla-Pro-Arg-B74] (HELM PEPTIDE1{[O=C([C@H](Cc1ccc2ccccc2c1)N[*:1])[*:2]].[O=C([C@H](CCCCCS)N[*:1])[*:2]].[dH].[dN].[dE].L.[dA].P.R}$PEPTIDE1,PEPTIDE1,1:R1-9:R2$$$V2.0)
HDAC2 [1]
  IC50: > 1000 nM

## NCCCC[C@@H]1NC(=O)[C@@H]2C[C@@H](O)CN2C(=O)[C@H](CC(N)=O)NC(=O)[C@H](CCCCCS)NC(=O)CNC(=O)[C@H](Cc2c[nH]c3ccccc23)NC(=O)[C@@H](CCCCN)NC(=O)[C@H](CCC(N)=O)NC1=O [des1.1.2, SHA-Asn-Hpr-Lys-Gln-dLys-Trp-Gly] (HELM PEPTIDE1{G.[O=C([C@H](CCCCCS)N[*:1])[*:2]].N.[Hyp].K.Q.[dK].W}$PEPTIDE1,PEPTIDE1,1:R1-8:R2$$$V2.0)
HDAC2 [2]; Conc. 1.00E-05 M
  HDAC2 activity raw data (signal): 101836
HDAC2 [2]; Conc. 1.11E-06 M
  HDAC2 activity raw data (signal): 502310
HDAC2 [2]; Conc. 1.23E-07 M
  HDAC2 activity raw data (signal): 836305
HDAC2 [2]; Conc. 1.37E-08 M
  HDAC2 activity raw data (signal): 962979
HDAC2 [2]; Conc. 1.52E-09 M
  HDAC2 activity raw data (signal): 1015460
HDAC2 [2]; Conc. 3.33E-06 M
  HDAC2 activity raw data (signal): 281419
HDAC2 [2]; Conc. 3.70E-07 M
  HDAC2 activity raw data (signal): 724069
HDAC2 [2]; Conc. 4.12E-08 M
  HDAC2 activity raw data (signal): 1007771
HDAC2 [2]; Conc. 4.57E-09 M
  HDAC2 activity raw data (signal): 1082856
HDAC2 [2]; Conc. 5.08E-10 M
  HDAC2 activity raw data (signal): 1067045
HDAC6; Conc. 1.00E-05 M
  HDAC6 activity raw data (signal): 10576
HDAC6; Conc. 1.11E-06 M
  HDAC6 activity raw data (signal): 35009
HDAC6; Conc. 1.23E-07 M
  HDAC6 activity raw data (signal): 150676
HDAC6; Conc. 1.37E-08 M
  HDAC6 activity raw data (signal): 391207
HDAC6; Conc. 1.52E-09 M
  HDAC6 activity raw data (signal): 551447
HDAC6; Conc. 3.33E-06 M
  HDAC6 activity raw data (signal): 16992
HDAC6; Conc. 3.70E-07 M
  HDAC6 activity raw data (signal): 72135
HDAC6; Conc. 4.12E-08 M
  HDAC6 activity raw data (signal): 256776
HDAC6; Conc. 4.57E-09 M
  HDAC6 activity raw data (signal): 497632
HDAC6; Conc. 5.08E-10 M
  HDAC6 activity raw data (signal): 597163
HDAC8; peptide conc. 1.00E-05 M
  HDAC8 activity raw data (signal): 21213376
HDAC8; peptide conc. 1.11E-06 M
  HDAC8 activity raw data (signal): 37632401
HDAC8; peptide conc. 1.23E-07 M
  HDAC8 activity raw data (signal): 42211938
HDAC8; peptide conc. 1.37E-08 M
  HDAC8 activity raw data (signal): 48061782
HDAC8; peptide conc. 1.52E-09 M
  HDAC8 activity raw data (signal): 52470288
HDAC8; peptide conc. 3.33E-06 M
  HDAC8 activity raw data (signal): 31972513
HDAC8; peptide conc. 3.70E-07 M
  HDAC8 activity raw data (signal): 43240252
HDAC8; peptide conc. 4.12E-08 M
  HDAC8 activity raw data (signal): 47347914
HDAC8; peptide conc. 4.57E-09 M
  HDAC8 activity raw data (signal): 49471078
HDAC8; peptide conc. 5.08E-10 M
  HDAC8 activity raw data (signal): 54514203
HDAC3; Conc. 1.00E-05 M
  HDAC3 activity raw data (signal): 22366
HDAC3; Conc. 1.11E-06 M
  HDAC3 activity raw data (signal): 160146
HDAC3; Conc. 1.23E-07 M
  HDAC3 activity raw data (signal): 601268
HDAC3; Conc. 1.37E-08 M
  HDAC3 activity raw data (signal): 1087451
HDAC3; Conc. 1.52E-09 M
  HDAC3 activity raw data (signal): 1408573
HDAC3; Conc. 3.33E-06 M
  HDAC3 activity raw data (signal): 60464
HDAC3; Conc. 3.70E-07 M
  HDAC3 activity raw data (signal): 337153
HDAC3; Conc. 4.12E-08 M
  HDAC3 activity raw data (signal): 888364
HDAC3; Conc. 4.57E-09 M
  HDAC3 activity raw data (signal): 1250419
HDAC3; Conc. 5.08E-10 M
  HDAC3 activity raw data (signal): 1404307
HDAC1; peptide conc. 1.00E-05 M
  HDAC1 activity raw data (signal): 76959
HDAC1; peptide conc. 1.11E-06 M
  HDAC1 activity raw data (signal): 410794
HDAC1; peptide conc. 1.23E-07 M
  HDAC1 activity raw data (signal): 886094
HDAC1; peptide conc. 1.37E-08 M
  HDAC1 activity raw data (signal): 1048348
HDAC1; peptide conc. 1.52E-09 M
  HDAC1 activity raw data (signal): 1178275
HDAC1; peptide conc. 3.33E-06 M
  HDAC1 activity raw data (signal): 193861
HDAC1; peptide conc. 3.70E-07 M
  HDAC1 activity raw data (signal): 669526
HDAC1; peptide conc. 4.12E-08 M
  HDAC1 activity raw data (signal): 1039919
HDAC1; peptide conc. 4.57E-09 M
  HDAC1 activity raw data (signal): 1106752
HDAC1; peptide conc. 5.08E-10 M
  HDAC1 activity raw data (signal): 1177089
